Data on 1 compound can be found in patent publication US10428043B2, “Green oxidation catalytic system” (TRUSTEES OF BOSTON UNIVERSITY, priority 2014, dated 2019).

Data set [1] is described as follows: Room temperature O2 reactivity of ferrous complexes followed by UV/vis. The following applies: methanol. The procedure: The solution was transferred to an anaerobic UV/vis cell and sealed. An initial spectrum was obtained of the ferrous complex, and then the solution was exposed to the air. Spectra were recorded every minute for the first two minutes and then every 5-30 minutes after that for seven hours. The absorbance was monitored at 350 nm to follow formation of the oxidized complex.
This solution was then transferred to an anaerobic UV/vis cell and sealed. An initial spectrum was obtained of the ferrous complex, and then the solution was exposed to the air. Spectra were collected every minute for the first 30 minutes and then every 5-20 minutes after that for 2 hours. The absorbance was monitored at 315 nm to follow formation of the oxidized complex.

Data set [2] can be described thus: Cyclic voltammetry, redox potentials. It counts as physicochemical. From the text:
All reagents and solvents used were purchased from commercial sources and used as received unless otherwise noted. Prior to use, methanol (Pharmco-Aaper) was distilled over magnesium metal, dimethyl sulfoxide (Fisher Scientific) was distilled over calcium hydride, triethylamine was distilled over sodium metal and unstabilized dichloromethane (Fisher Scientific) was distilled over calcium hydride. Ferrocene was purified by sublimation for use as a reference for electrochemical analyses. All manipulations involving ferrous complexes were carried out in an inert atmosphere glovebox (M. Braun, Stratham, N.H.) with distilled and thoroughly degassed solvents. UV/Vis spectra were collected using a Hewlett Packard Spectrometer (8453). IR spectra were collected using a Thermo Nicolet AVATAR 330-FT-IR. Cyclic voltammetry experiments were performed using a Princeton Applied Research model 273 potentiostat with a glassy carbon working electrode, a silver wire reference electrode and a platinum wire counter electrode. Electron Paramagnetic Resonance (EPR) spectra were collected on a Bruker ESP-300E spectrometer operating at 9.460 GHz. NMR spectra were recorded at 25° C. using a Varian spectrometer operating at 400 MHz with all chemical shifts referenced to SiMe4. Iron concentrations were determined using a Varian AA240Z Atomic Absorption Spectrometer.
Cyclic voltammetry was performed inside an inert atmosphere (N2) box, with degassed DMSO as the solvent and tetra-N-butylammonium hexafluorophosphate as the supporting electrolyte (0.2M). The ferrocenium/ferrocene couple was used as an internal reference; reduction potential values were corrected by assigning the ferrocenium/ferrocene couple to 0.64 V versus NHE (Zanello, P. Inorganic Electrochemistry; The Royal Society of Chemistry: Cambridge, 2003). Chloride titration experiments were performed by collecting CV data after the addition of one and two 50 μL aliquots of 204 mM [NEt4][Cl] to 3.0 mL of 3.4 mM [Fe^II(N2O1py)(Cl)2]^− (concentration determined using flame atomic absorption spectroscopy) and correcting the potential with reference to the ferrocenium/ferrocene couple.
It should be noted that these redox potentials were determined in the absence of excess halide, and further CV studies will be performed in the presence of excess halide for all derivatives of the N2O1py system.

A short description of data set [3]: Solubility. It counts as physicochemical.
Setting [4] is: calculated from redox potentials for the one-electron transfer between iron and dioxygen.

`CN(CC(=O)[O-])Cc1ccccn1.[Cl-].[Cl-].[Fe+2]` [[Fe^II(N2O1py)(Cl)2]^−, [PSH][Fe^II(N2O1py)(Cl)2]]: the “time for formation of the diferric oxo-bridged product on reaction with O2” value in data set [1] was > 7 h. Further, in data set [2], the redox potential was determined as 188 mV. The E1/2 in data set [2] (DMSO, glassy carbon working electrode, absence of excess halide) is listed as 216 mV; in data set [2] (no added halide, in mV), “+216”. Besides, in data set [2] (setting [4]), the Keq was 1.7 × 10^−9. In addition, the “ΔG°” value in data set [2] (setting [4]) is recorded as 50 kJ. This compound also gave a ΔE in data set [2] (no added halide) of 96 mV. For the same compound, the “solubility properties compared with the first generation catalyst” value in data set [3] was “very similar solubility properties”.
